Toxic doses and inconclusive results are not listed. Rule for the calls: active = survival T/C of 150% or more; inactive = T/C below 125% in these data.
Tested on: CD2F1 mice, L1210 leukemia ip, survival T/C
Experiment: NCI In Vivo Anticancer Drug Screen. Data for tumor model L1210 Leukemia (intraperitoneal) in CD2F1 (CDF1) mice
Settings: endpoint: median survival time, schedule: Q01DX005 (ip), vehicle: saline with Tween-80, higher = longer survival
Summary of the method: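 Ratio T/C, where T is the treated-group value and C the vehicle-dosed control value, from mice implanted with a transplantable tumor.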

Measured: T/C

CSc1nc(NC2OC(CO)C(O)C(O)C2O)c(Br)c(=O)[nH]1 (stereo not given)
inactive: dose: 12.5 mg/kg/injection 101 % of control | dose: 25.0 mg/kg/injection 101 % of control | dose: 50.0 mg/kg/injection 100 % of control | dose: 100.0 mg/kg/injection 101 % of control | dose: 200.0 mg/kg/injection 100 % of control

Source: PubChem BioAssay AID256 (DTP/NCI, 2004)
